Source: patent publication US11999727B2 (Tango Therapeutics, Inc., priority 2020, dated 2024)

Columns and labels:
PRMT5 [1] = target: T1, PRMT5 (Homo sapiens, UniProt O14744); experiment: PRMT5 biochemical IC50 assay with MTA as cofactor; conditions: PRMT5, MTA as cofactor; read-out: MTA IC50
T1 construct: purchased Viva (custom protein)

PRMT5 [2] = target: T1, PRMT5; experiment: PRMT5 biochemical IC50 assay with no cofactor; conditions: PRMT5, no cofactor; read-out: No Cofactor/rel IC50
Text: Table 1 indicates IC50 values (μM) against PRMT5 for exemplary compounds in the presence of SAM as cofactor, with no cofactor, and with MTA as cofactor, respectively (columns 4-6). […] Ki values can be calculated from the IC50 values as described in the Examples section. As detailed in the Examples section, for the assay performed in the presence of SAM, IC50=Ki×1.5 (Ki=IC50/1.5).

PRMT5 [3] = target: T1, PRMT5; experiment: PRMT5 biochemical IC50 assay with SAM as cofactor; conditions: PRMT5, SAM as cofactor; read-out: SAM IC50
[4] = system: HAP1 MTAP-deleted cell line; experiment: SDMA in-cell western assay, HAP1 MTAP-deleted; type: cell-based; conditions: for IC50: Homo sapiens, HAP1, SDMA in-cell western, HAP1 MTAP-deleted, read-out: HAP1 MTAP deleted IC50; for MTAP intact/deleted ratio: IC50 ratio HAP1 MTAP-intact / HAP1 MTAP-deleted, SDMA in-cell western
Outline: (§1)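 Readout: in-cell western detection of SDMA. Cells: HAP1 expressing endogenous MTAP and an MTAP-null HAP1 counterpart. Output: IC50.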

[5] = system: HAP1 MTAP-deleted cell line; experiment: Viability assay, MTAP-deleted cell line; type: cell-based; conditions: Homo sapiens, HAP1, viability assay, MTAP-deleted cell line; read-out: HAP1 MTAP deleted viability
Text: Table 1 additionally indicates IC50 values in a viability assay for the MTAP-deleted cell line (column 10), indicating the effect of treatment with compound on cell survival.

[6] = system: HAP1 MTAP-intact cell line; experiment: SDMA in-cell western assay, HAP1 MTAP-intact; type: cell-based; conditions: Homo sapiens, HAP1, SDMA in-cell western, HAP1 MTAP-intact; read-out: MTAP HAP1 intact IC50
Outline: as §1

T1 sequence (O14744 whole entry): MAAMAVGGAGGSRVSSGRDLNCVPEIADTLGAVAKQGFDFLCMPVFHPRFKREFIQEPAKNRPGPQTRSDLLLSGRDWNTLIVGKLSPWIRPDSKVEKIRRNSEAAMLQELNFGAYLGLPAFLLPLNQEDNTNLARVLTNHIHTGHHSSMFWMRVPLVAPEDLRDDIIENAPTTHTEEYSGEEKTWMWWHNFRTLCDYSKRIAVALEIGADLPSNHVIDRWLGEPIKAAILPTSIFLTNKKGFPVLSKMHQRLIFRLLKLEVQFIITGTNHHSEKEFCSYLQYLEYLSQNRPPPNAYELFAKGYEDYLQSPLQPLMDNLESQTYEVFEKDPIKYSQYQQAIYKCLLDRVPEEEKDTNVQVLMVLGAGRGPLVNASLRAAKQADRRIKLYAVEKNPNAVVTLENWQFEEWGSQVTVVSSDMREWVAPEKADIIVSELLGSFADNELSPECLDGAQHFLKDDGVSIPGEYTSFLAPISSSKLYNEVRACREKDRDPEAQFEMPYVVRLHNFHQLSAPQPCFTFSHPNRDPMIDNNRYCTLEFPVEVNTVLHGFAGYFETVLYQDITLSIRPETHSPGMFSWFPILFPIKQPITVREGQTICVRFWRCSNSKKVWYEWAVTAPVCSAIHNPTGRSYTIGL
T1 sequence (Q9BQA1 whole entry partner): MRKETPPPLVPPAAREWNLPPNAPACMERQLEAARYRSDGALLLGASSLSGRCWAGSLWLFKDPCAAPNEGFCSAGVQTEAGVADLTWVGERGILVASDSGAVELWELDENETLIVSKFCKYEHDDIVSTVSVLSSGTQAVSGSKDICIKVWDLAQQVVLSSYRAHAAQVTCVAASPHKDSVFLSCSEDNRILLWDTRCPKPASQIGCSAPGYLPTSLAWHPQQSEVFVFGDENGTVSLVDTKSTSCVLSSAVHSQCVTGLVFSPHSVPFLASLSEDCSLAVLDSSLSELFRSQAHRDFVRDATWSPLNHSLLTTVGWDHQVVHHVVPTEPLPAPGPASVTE

| Structure (SMILES) | IC50 (PRMT5 [1]) [nM] | IC50 (PRMT5 [2]) [nM] | IC50 (PRMT5 [3]) [nM] | IC50 [4] [nM] | MTAP intact/deleted ratio [4] | IC50 [5] [nM] | IC50 [6] [nM] |
| --- | --- | --- | --- | --- | --- | --- | --- |
| C[C@@H]1CC[C@@H](C2CCC(F)(F)CC2)N(C(=O)C(=O)Nc2cncc(C(N)=O)c2)C1 (single isomer, unassigned) [Compound 486] | > 500 | > 500 | > 500 | > 1000 | C (an IC50 ratio of less than 3 fold) | > 10000 | > 1000 |
| Cc1cc(NC(=O)C(=O)N2C[C@@H](C)CC[C@@H]2c2cc(F)c(F)c(F)c2)cnc1N (single isomer, unassigned) [Compound 487] | > 500 | > 500 | > 500 | > 1000 | C (an IC50 ratio of less than 3 fold) | > 10000 | > 1000 |
| C[C@H]1CC[C@H](c2ccc(Cl)c(Cl)c2)N(C(=O)C(=O)Nc2cncc(C(N)=O)c2)C1 (single isomer, unassigned) [Compound 488] | < 50 | 50 to 500 | 50 to 500 | 100 to 1000 | A (an IC50 ratio greater than or equal to 10 fold) | 1000 to 10000 | > 1000 |
| C[C@@H]1CC[C@@H](c2ccc(Cl)c(Cl)c2)N(C(=O)C(=O)Nc2cncc(C(N)=O)c2)C1 (single isomer, unassigned) [Compound 489] | > 500 | > 500 | > 500 | > 1000 | C (an IC50 ratio of less than 3 fold) | > 10000 | > 1000 |
| C[C@@H]1CC[C@@H](c2cc(Cl)cc(Cl)c2)N(C(=O)C(=O)Nc2cncc(C(N)=O)c2)C1 (single isomer, unassigned) [Compound 490] | > 500 | > 500 | > 500 | > 1000 | C (an IC50 ratio of less than 3 fold) | > 10000 | > 1000 |
| C[C@H]1CC[C@H](c2cc(Cl)cc(Cl)c2)N(C(=O)C(=O)Nc2cncc(C(N)=O)c2)C1 (single isomer, unassigned) [Compound 491] | < 50 | 50 to 500 | 50 to 500 | 100 to 1000 | A (an IC50 ratio greater than or equal to 10 fold) | 1000 to 10000 | > 1000 |
| C[C@@H]1CC[C@@H](c2ccc(N)nc2)N(C(=O)C(=O)Nc2cncc(C(N)=O)c2)C1 (single isomer, unassigned) [Compound 492] | < 50 | < 50 | 50 to 500 | < 100 | A (an IC50 ratio greater than or equal to 10 fold) | 1000 to 10000 | > 1000 |
| C[C@H]1CC[C@H](c2ccc(N)nc2)N(C(=O)C(=O)Nc2cncc(C(N)=O)c2)C1 (single isomer, unassigned) [Compound 493] | > 500 | > 500 | > 500 | > 1000 | C (an IC50 ratio of less than 3 fold) | > 10000 | > 1000 |
| Cc1cc(NC(=O)C(=O)N2C[C@H](C)CC[C@H]2c2cccc(C(F)(F)F)c2)cnc1N (single isomer, unassigned) [Compound 496] | < 50 | < 50 | 50 to 500 | < 100 | A (an IC50 ratio greater than or equal to 10 fold) | 1000 to 10000 | > 1000 |
| Cc1cc(NC(=O)C(=O)N2C[C@H](C)CC[C@H]2c2ccc(NS(C)(=O)=O)cc2)cnc1N (single isomer, unassigned) [Compound 499] | < 50 | < 50 | 50 to 500 | 100 to 1000 | A (an IC50 ratio greater than or equal to 10 fold) | < 1000 | > 1000 |
